# Assay results reported in patent publication US10285382B2 (priority 2017, dated 2019).
# Like-named read-outs stand apart in the source and are kept apart here.
# Legend:
# [1] = tested on: salmonellae; details: egg cooler conditions; during the trial
# [2] = tested on: bacteria; details: end of test period (0, 7, and 30 days), three locations; from about 70 total; FIGS. 9A-C
# Description: In addition, bacterial contamination in the egg room is assessed by placing blood agar plates at three locations in the room (East, North, and West) at 0, 7, and 30 days, and bacterial growth is assessed after 24 hours.
# [3] = tested on: E. coli K12; details: for % Reduction vs. Control / Log10 reduction / Log10 reduction vs. Control / Percent reduction: DHP (+)
# [4] = tested on: flies and other unwanted insects
# Description: In addition to the incoming eggs, the egg room includes excess shipping boxes and pallets.
# [5] = tested on: MS2 Bacteriophage ATCC 15597-B1; details: DHP (+); 1 hour
# [6] = tested on: hatching eggs
# [7] = tested on: chicks
# Description: The chicks hatched according to the methods of Examples 2 and 3 are shipped to a broiler facility and raised to maturity. No additional changes to grow-out methods are made. A total of about 4 million eggs are set per month and the saleable chicks are sent to the grow-out facility. […] The wholesale price of a broiler is currently estimated at $0.85 per pound. […] See the http:///.nationalchickencouncil.org available on the web.
smiles,measurement,setting,value
"OO [DHP, dry hydrogen peroxide]",growth of Salmonella on the XLT-4,[1],No growth
same,"number of bacterial colonies on the blood agar plates, total",[2],about 30
same,% Reduction vs. Control,[3]; 1 hour,99.8%
same,Log10 reduction,[3]; 1 hour,>4.78
same,Log10 reduction vs. Control,[3]; 1 hour,2.82
same,Percent reduction,[3]; 1 hour,>99.9984%
same,% Reduction vs. Control,[3]; 2 hours,98.1%
same,Log10 reduction,[3]; 2 hours,>4.79
same,Log10 reduction vs. Control,[3]; 2 hours,1.71
same,Percent reduction,[3]; 2 hours,>99.9984%
same,aerosolized bacteria in the DHP treated space,[3]; within one hour,essentially eliminated
same,elimination of flies and other unwanted insects,"[4]; egg room, DHP between 0.1 ppm and 0.2 ppm",sufficient to eliminate
same,"elimination of flies and other unwanted insects, both flying and non-flying",[4]; incorporation of DHP into the egg room,eliminates
same,flying insects in the facility,[4]; within the first couple days of applying DHP to the poultry space,virtually eliminated
same,% Reduction vs. Control,[5],99.8%
same,Log10 reduction,[5],3.54
same,Log10 reduction vs. Control,[5],2.70
same,Percent reduction,[5],99.97%
same,Percent Saleable Chicks,[6]; After DHP treatment,80.82%
same,Saleable Chick (average),"[6]; After DHP treatment, 4,000,000 eggs set per month","3,318,400"
same,Net increase (# Chicks),"[6]; After DHP treatment, from each 4,000,000 eggs set","62,000"
same,After Modification Cull Rate (%),[6]; August 2016,1.58%
same,After Modification First Quality Chick (% Hatched),[6]; August 2016,79.90%
same,After Modification Cull Rate (%),[6]; Average June-November 2016,1.65%
same,After Modification First Quality Chick (% Hatched),[6]; Average June-November 2016,80.82%
same,cull rate lower than the cull rate before DHP modification,[6]; DHP modified egg room,at least 1%
same,After Modification Cull Rate (%),[6]; July 2016,1.88%
same,After Modification First Quality Chick (% Hatched),[6]; July 2016,79.78%
same,After Modification Cull Rate (%),[6]; June 2016,2.09%
same,After Modification First Quality Chick (% Hatched),[6]; June 2016,78.62%
same,After Modification Cull Rate (%),[6]; November 2016,1.41%
same,After Modification First Quality Chick (% Hatched),[6]; November 2016,82.96%
same,After Modification Cull Rate (%),[6]; October 2016,1.32%
same,After Modification First Quality Chick (% Hatched),[6]; October 2016,82.55%
same,After Modification Cull Rate (%),[6]; September 2016,1.63%
same,After Modification First Quality Chick (% Hatched),[6]; September 2016,81.09%
same,percent hatching of first quality chicks,"[6]; after installation of DHP to the setter incubator environment (room about 0.5 ppm), FIG. 6",83%
same,cull rate,"[6]; eggs incubated under DHP conditions, FIG. 7",continues to drop
same,additional birds available for shipping to the grow-out facility,[6]; installation of DHP in the egg room,"about 4,000 birds"
same,Mortality Rate,"[7]; After DHP treatment, grow-out facility",2.2%
same,Net increase (# Broilers),"[7]; After DHP treatment, per month","308,678"
same,reduction of mortality,[7]; at the grow-out facility,about 7.8%
same,increase in overall production,[7]; per month,"over 300,000 broilers"
